Data from patent US20200172491A1, “SUBSTITUTED 5-(HET-)ARYLPYRAZOLAMIDES AND SALTS THEREOF AND THEIR USE AS HERBICIDAL ACTIVE SUBSTANCES” (Bayer CropScience Aktiengesellschaft, priority 2017, published 2020).

How the values were obtained:
Assay type in all cases: in vivo
Veronica persica = assay: Pre-emergence herbicidal action; conditions: 320 g/ha, scored after about 3 weeks, 100% = plants have died, 0% = like control plants
Excerpt: (§1) Seeds of monocotyledonous and dicotyledonous weed plants and crop plants were placed in plastic or wood-fiber pots and covered with soil. The compounds of the invention, formulated in the form of wettable powders (WP) or as emulsion concentrates (EC), were then applied to the surface of the covering soil as aqueous suspension or emulsion with addition of 0.5% additive at a water application rate equivalent to 600 l/ha. After the treatment, the pots were placed in a greenhouse and kept under good growth conditions for the test plants. After about 3 weeks, the effect of the preparations is scored visually in comparison with untreated controls as percentages. For example, 100% activity=the plants have died, 0% activity=like control plants. Tables B7 to B11 below show the effects of selected compounds of the general formula (I) according to Table A1 at an application rate of 320 g/ha on various harmful plants, which were obtained by the aforementioned experimental procedure.

Matricaria inodora [1] = assay: Pre-emergence herbicidal action; conditions: 320 g/ha, scored after about 3 weeks, 100% = plants have died, 0% = like control plants
Excerpt: as §1

Stellaria media [2] = assay: Pre-emergence herbicidal action; conditions: 320 g/ha, scored after about 3 weeks, 100% = plants have died, 0% = like control plants
Excerpt: as §1

Amaranthus retroflexus [3] = assay: Pre-emergence herbicidal action; conditions: 320 g/ha, scored after about 3 weeks, 100% = plants have died, 0% = like control plants
Excerpt: as §1

Viola tricolor [4] = assay: Post-emergence herbicidal action; conditions: 320 g/ha, rated after about 3 weeks, 100% = plants have died, 0% = like control plants
Procedure: (§2) Seeds of monocotyledonous and dicotyledonous weeds and crop plants were placed in sandy loam in plastic or wood-fiber pots, covered with soil and cultivated in a greenhouse under controlled growth conditions. 2 to 3 weeks after sowing, the test plants were treated at the one-leaf stage. The compounds of the invention, formulated in the form of wettable powders (WP) or as emulsion concentrates (EC), were then sprayed onto the green parts of the plants as aqueous suspension or emulsion with addition of 0.5% additive at a water application rate of 600 l/ha (converted). After the test plants had been kept in the greenhouse under optimum growth conditions for about 3 weeks, the activity of the preparations was rated visually in comparison to untreated controls. For example, 100% activity=the plants have died, 0% activity=like control plants. Tables B1 to B6 below show the effects of selected compounds of the general formula (I) according to Table A1 at an application rate of 320 g/ha on various harmful plants, which were obtained by the aforementioned experimental procedure.

Matricaria inodora [5] = assay: Post-emergence herbicidal action; conditions: 320 g/ha, rated after about 3 weeks, 100% = plants have died, 0% = like control plants
Procedure: as §2

Stellaria media [6] = assay: Post-emergence herbicidal action; conditions: 320 g/ha, rated after about 3 weeks, 100% = plants have died, 0% = like control plants
Procedure: as §2

Amaranthus retroflexus [7] = assay: Post-emergence herbicidal action; conditions: 320 g/ha, rated after about 3 weeks, 100% = plants have died, 0% = like control plants
Procedure: as §2

Ipomoea purpurea = assay: Post-emergence herbicidal action; conditions: 320 g/ha, rated after about 3 weeks, 100% = plants have died, 0% = like control plants
Procedure: as §2

Viola tricolor [8] = assay: Pre-emergence herbicidal action; conditions: 320 g/ha, scored after about 3 weeks, 100% = plants have died, 0% = like control plants
Excerpt: as §1

SMILES | herbicidal activity on Veronica persica (visual rating vs untreated controls) (Veronica persica) [%] | herbicidal activity on Matricaria inodora (visual rating vs untreated controls) (Matricaria inodora [1]) [%] | herbicidal activity on Stellaria media (visual rating vs untreated controls) (Stellaria media [2]) [%] | herbicidal activity on Amaranthus retroflexus (visual rating vs untreated controls) (Amaranthus retroflexus [3]) [%] | herbicidal activity on Viola tricolor (visual rating vs untreated controls) (Viola tricolor [4]) [%] | herbicidal activity on Matricaria inodora (visual rating vs untreated controls) (Matricaria inodora [5]) [%] | herbicidal activity on Stellaria media (visual rating vs untreated controls) (Stellaria media [6]) [%] | herbicidal activity on Amaranthus retroflexus (visual rating vs untreated controls) (Amaranthus retroflexus [7]) [%] | herbicidal activity on Ipomoea purpurea (visual rating vs untreated controls) (Ipomoea purpurea) [%] | herbicidal activity on Viola tricolor (visual rating vs untreated controls) (Viola tricolor [8]) [%]
Cc1nn(C)c(-c2ccc(F)cc2Cl)c1C(=O)Nc1cccc(Cl)c1 [I-001] | 100 | 100 | 100 | 100 | 100 | 90 | 100 | 100 | 100 | –
Cc1nn(C)c(-c2ccc(F)cc2Cl)c1C(=O)Nc1ccccc1 [I-002] | – | 100 | 100 | 100 | 100 | 100 | 100 | 100 | 80 | 100
Cc1nn(C)c(-c2ccc(F)cc2Cl)c1C(=O)NC1CCCC1 [I-003] | – | 90 | 80 | – | – | – | – | 100 | – | –
Cc1nn(C)c(-c2ccc(F)cc2Cl)c1C(=O)Nc1ccccc1F [I-006] | – | 90 | 100 | 100 | 100 | – | 100 | 100 | – | 100
Cc1nn(C)c(-c2ccc(F)cc2Cl)c1C(=O)Nc1ccc(F)cc1 [I-007] | – | – | 100 | 90 | – | – | 80 | 100 | – | –
Cc1cccnc1NC(=O)c1c(C)nn(C)c1-c1ccc(F)cc1Cl [I-010] | – | 100 | – | 100 | 100 | – | 100 | 100 | – | –
Cc1nn(C)c(-c2ccc(F)cc2Cl)c1C(=O)Nc1ncccc1F [I-011] | – | – | 80 | 80 | – | – | 80 | 90 | – | –
Cc1nn(C)c(-c2cc(F)ccc2Cl)c1C(=O)Nc1c(Cl)cccc1Cl [I-014] | – | – | – | – | 100 | – | 90 | 80 | – | –
Cc1nn(C)c(-c2ccc(F)cc2Cl)c1C(=O)Nc1cc(Cl)ccc1Cl [I-017] | – | 80 | – | 100 | 90 | – | 100 | 100 | – | –
Cc1nn(C)c(-c2ccc(F)cc2Cl)c1C(=O)NC1CCCCC1 [I-018] | – | – | – | – | – | – | – | 80 | – | –
Cc1nn(C)c(-c2ccc(F)cc2Cl)c1C(=O)Nc1cc(Cl)cc(Cl)c1 [I-020] | – | 100 | 90 | 100 | 100 | – | – | 100 | – | 80
Cc1nn(C)c(-c2ccc(F)cc2Cl)c1C(=O)Nc1cc(Cl)ccc1F [I-021] | – | 100 | 100 | 100 | 100 | – | 100 | 100 | – | 100
Cc1nn(C)c(-c2ccc(F)cc2Cl)c1C(=O)Nc1ccc(F)nc1 [I-023] | – | 90 | 100 | – | – | – | 100 | 90 | – | –
Cc1nn(C)c(-c2ccc(F)cc2Cl)c1C(=O)Nc1ccc(Cl)cc1 [I-024] | – | – | – | – | 100 | – | 100 | 100 | – | –
Cc1nn(C)c(-c2ccc(F)cc2Cl)c1C(=O)Nc1c(F)cc(F)cc1F [I-025] | – | 100 | 100 | 100 | 100 | 100 | 90 | 100 | 80 | 100
CCn1nc(C)c(C(=O)Nc2c(Cl)cccc2Cl)c1-c1ccc(F)cc1Cl [I-026] | – | – | – | – | 80 | – | – | 90 | – | –
Cc1nn(C)c(-c2ccc(F)cc2Cl)c1C(=O)Nc1cccnc1F [I-031] | – | 100 | 90 | 100 | 100 | – | 100 | 100 | – | 80
Cc1nn(C)c(-c2ccc(F)cc2Cl)c1C(=O)Nc1cncc(F)c1 [I-032] | – | 100 | – | 100 | 100 | 100 | 100 | 100 | 90 | –
Cc1nn(C)c(-c2ccc(F)cc2)c1C(=O)Nc1c(Cl)cccc1Cl [I-033] | – | – | – | – | 80 | – | – | 80 | – | –
